Laboratory results as given in PubChem BioAssay AID248 (DTP/NCI, 2004).
Where “and” joins values, the source holds several entries; their conditions need not be identical. Equal values may be shown once. Toxic doses and inconclusive results are not listed.

Tested on: L1210 leukemia ip in BDF1 mice, survival T/C
Experiment: NCI In Vivo Anticancer Drug Screen. Data for tumor model L1210 Leukemia (intraperitoneal) in B6D2F1 (BDF1) mice
Details: endpoint: mean survival time, higher = longer survival
Outline: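 Each compound was tested against a transplantable tumor grown in mice. The endpoint was survival, with treated animals benchmarked against vehicle controls as a simple ratio.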

[1] = dose: 100.0 mg/kg/injection, schedule: Q01DX009 (ip), vehicle: saline with Tween-80
[2] = dose: 100.0 mg/kg/injection, schedule: Q04DX003 (ip), vehicle: saline with Tween-80
[3] = dose: 200.0 mg/kg/injection, schedule: Q01DX009 (ip), vehicle: saline with Tween-80
[4] = dose: 200.0 mg/kg/injection, schedule: Q04DX003 (ip), vehicle: saline with Tween-80
[5] = dose: 400.0 mg/kg/injection, schedule: Q01DX009 (ip), vehicle: saline with Tween-80
[6] = dose: 400.0 mg/kg/injection, schedule: Q04DX003 (ip), vehicle: saline with Tween-80
[7] = dose: 25.0 mg/kg/injection, schedule: Q04DX002 (ip), vehicle: Klucel (hydroxypropylcellulose) (HPC)
[8] = dose: 50.0 mg/kg/injection, schedule: Q04DX002 (ip), vehicle: Klucel (hydroxypropylcellulose) (HPC)
[9] = dose: 50.0 mg/kg/injection, schedule: Q04DX003 (ip), vehicle: saline with Tween-80
[10] = dose: 100.0 mg/kg/injection, schedule: Q04DX002 (ip), vehicle: Klucel (hydroxypropylcellulose) (HPC)
[11] = dose: 200.0 mg/kg/injection, schedule: Q04DX002 (ip), vehicle: Klucel (hydroxypropylcellulose) (HPC)
[12] = dose: 400.0 mg/kg/injection, schedule: Q04DX002 (ip), vehicle: Klucel (hydroxypropylcellulose) (HPC)
[13] = dose: 25.0 mg/kg/injection, schedule: Q04DX002 (ip), vehicle: saline with Tween-80
[14] = dose: 50.0 mg/kg/injection, schedule: Q04DX002 (ip), vehicle: saline with Tween-80
[15] = dose: 100.0 mg/kg/injection, schedule: Q04DX003 (ip), vehicle: saline
[16] = dose: 100.0 mg/kg/injection, schedule: Q04DX003 (ip), vehicle: Klucel (hydroxypropylcellulose) (HPC)

For `COC(=O)C1CCC2c3ccccc3C(C1)c1ccccc12` (stereo unspecified), the T/C [1] was 97 % of control, the T/C [2] was 101 % of control and the T/C [3] was 95 % of control. The T/C [4] was 95 % of control, the T/C [5] was 94 % of control and the T/C [6] was 93 % of control.
With `COc1ccc(OC)c(NC(=S)N/N=C(/C)c2cc([N+](=O)[O-])c(O)cc2O)c1` the T/C (dose: 12.5 mg/kg/injection, schedule: Q04DX002 (ip), vehicle: Klucel (hydroxypropylcellulose) (HPC)) was 102 % of control, the T/C [7] was 102 % of control and the T/C [8] was 105 % of control.
With `Cc1nc(-c2ccc3ccc4cccnc4c3n2)no1` the T/C [9] was 93 % of control and the T/C [4] was 86 % of control.
For `CCN=C(c1ccc(NC(=O)c2ccc(C(=O)Nc3ccc(C(=NCC)N(CC)C(=O)Nc4ccc(OC)cc4)cc3)cc2)cc1)N(CC)C(=O)Nc1ccc(OC)cc1`, the T/C (dose: 2.25 mg/kg/injection, schedule: Q01DX015 (ip), vehicle: methylcellulose (MC)) was 108 % of control, the T/C (dose: 3.12 mg/kg/injection, schedule: Q01DX015 (ip), vehicle: methylcellulose (MC)) was 101 % of control and the T/C (dose: 4.5 mg/kg/injection, schedule: Q01DX015 (ip), vehicle: methylcellulose (MC)) was 110 % of control. The T/C (dose: 6.25 mg/kg/injection, schedule: Q01DX015 (ip), vehicle: methylcellulose (MC)) was 124 % of control and the T/C (dose: 12.5 mg/kg/injection, schedule: Q01DX015 (ip), vehicle: methylcellulose (MC)) was 170 % of control.
With `COC1=NCCCCC1` the T/C [9] was 94 % of control, the T/C [2] was 99 % of control and the T/C [4] was 91 % of control.
`C[n+]1ccc(NC(=O)c2ccc(NC(=O)c3ccc(C(=O)Nc4ccc(C(=O)Nc5cc[n+](C)cc5)cc4)c(N)c3)cc2)cc1` was tested, and the T/C (dose: 8.1 mg/kg/injection, schedule: Q01DX Z (oral), vehicle: water) was 97 % of control, the T/C (dose: 10.0 mg/kg/injection, schedule: Q01DX Z (ip), vehicle: water) was 123 % of control and the T/C (dose: 12.5 mg/kg/injection, schedule: Q01DX Z (ip), vehicle: water) was 124 % of control. The T/C (dose: 16.3 mg/kg/injection, schedule: Q01DX Z (oral), vehicle: water) was 112 % of control, the T/C (dose: 20.0 mg/kg/injection, schedule: Q01DX Z (ip), vehicle: water) was 162 % of control and the T/C (dose: 25.0 mg/kg/injection, schedule: Q01DX Z (ip), vehicle: water) was 150 % of control. For the same compound, the T/C (dose: 32.5 mg/kg/injection, schedule: Q01DX Z (oral), vehicle: water) was 101 % of control, the T/C (dose: 40.0 mg/kg/injection, schedule: Q01DX Z (ip), vehicle: water) was 91 % of control and the T/C (dose: 50.0 mg/kg/injection, schedule: Q01DX Z (ip), vehicle: water) was 120 % of control. For the same compound, the T/C (dose: 62.0 mg/kg/injection, schedule: Q01DX Z (ip), vehicle: carboxymethylcellulose (CMC)) was 118 % of control and the T/C (dose: 65.0 mg/kg/injection, schedule: Q01DX Z (oral), vehicle: water) was 105 % of control.
`COC(=O)c1ccccc1NC(=O)N(c1ccccc1)c1ccccc1` was tested, and the T/C [10] was 93 % of control, the T/C [11] was 97 % of control and the T/C [12] was 101 % of control.
With `CCN(CC)c1ccc(SSc2ccc(N(CC)CC)cc2)cc1` the T/C (dose: 25.0 mg/kg/injection, schedule: Q01DX001 (ip), vehicle: saline) was 105 % of control, the T/C (dose: 50.0 mg/kg/injection, schedule: Q01DX001 (ip), vehicle: saline) was 100 % of control and the T/C (dose: 100.0 mg/kg/injection, schedule: Q01DX001 (ip), vehicle: saline) was 100 % of control.
`O=C(NO)Oc1cccc2ccccc12` was tested, and the T/C [13] was 105 % of control, the T/C [14] was 119 % of control and the T/C (dose: 100.0 mg/kg/injection, schedule: Q04DX002 (ip), vehicle: saline with Tween-80) was 89 % of control.
`COC1(OC)C2C=CC1C1C2C2C1C1C=CC2C1(OC)OC` (stereo unspecified) was tested, and the T/C [1] was 103 % of control, the T/C [2] was 94 % of control and the T/C [3] was 95 % of control. For the same compound, the T/C [4] was 92 % of control, the T/C [5] was 100 % of control and the T/C [6] was 89 % of control.
For `O=C(COc1ccc(Cl)cc1)C1CSc2ccc(Br)cc21` (stereo unspecified), the T/C (dose: 100.0 mg/kg/injection, schedule: Q04DX003 (ip), vehicle: saline sonified) was 89 % of control, the T/C (dose: 200.0 mg/kg/injection, schedule: Q04DX003 (ip), vehicle: saline sonified) was 101 % of control and the T/C (dose: 400.0 mg/kg/injection, schedule: Q04DX003 (ip), vehicle: saline sonified) was 92 % of control.
In the case of `Cc1ccc(S(=O)(=O)Nc2ccccc2)cc1`, the T/C [10] is reported as 100 % of control, the T/C [11] is reported as 94 % of control and the T/C [12] is reported as 91 % of control.
`O=C(O)CCC(NC(=O)C1CCCCC1C(=O)O)C(=O)O` (stereo unspecified) was tested, and the T/C [15] was 96 % of control, the T/C (dose: 200.0 mg/kg/injection, schedule: Q04DX003 (ip), vehicle: saline) was 86 % of control and the T/C (dose: 400.0 mg/kg/injection, schedule: Q04DX003 (ip), vehicle: saline) was 87 % of control.
For `COC(=O)c1ccccc1N(C)C(=O)c1ccccc1`, the T/C [16] was 102 % of control, the T/C (dose: 200.0 mg/kg/injection, schedule: Q04DX003 (ip), vehicle: Klucel (hydroxypropylcellulose) (HPC)) was 107 % of control and the T/C (dose: 400.0 mg/kg/injection, schedule: Q04DX003 (ip), vehicle: Klucel (hydroxypropylcellulose) (HPC)) was 109 % of control.
For `CCCCCCCCCCCCCCCCCCNC(=O)Nc1cccc(OC)c1`, the T/C [13] was 102 % of control and the T/C [14] was 89 % of control.
`CC12CCC(C1)C(C)(C)C2NCCCN1C(=O)c2ccc3c4c(ccc(c24)C1=O)C(=O)N(CCCNC1C2(C)CCC(C2)C1(C)C)C3=O` (stereo unspecified) was tested, and the T/C (dose: 25.0 mg/kg/injection, schedule: Q01DX009 (ip), vehicle: saline) was 102 % of control, the T/C (dose: 25.0 mg/kg/injection, schedule: Q04DX003 (ip), vehicle: saline) was 98 % of control and the T/C (dose: 50.0 mg/kg/injection, schedule: Q01DX009 (ip), vehicle: saline) was 117 % of control. The T/C (dose: 50.0 mg/kg/injection, schedule: Q04DX003 (ip), vehicle: saline) was 94 % of control and the T/C [15] was 96 % of control and 90 % of control.
For `CN(C)/C=N\c1ncnc2c1ncn2C1OC(CO)C2OC(C)(C)OC21` (stereo unspecified), the T/C (dose: 100.0 mg/kg/injection, schedule: Q01DX005 (ip), vehicle: saline) was 104 % of control and the T/C (dose: 200.0 mg/kg/injection, schedule: Q01DX005 (ip), vehicle: saline) was 103 % of control.
In the case of `CC(C)(C)C(=O)CS(=O)(=O)C(Br)C(=O)C(C)(C)C` (stereo unspecified), the T/C [16] is reported as 100 % of control.
`O=C(C#Cc1ccccc1)[O][Sn]([c]1ccccc1)([c]1ccccc1)[c]1ccccc1` was tested, and the T/C (dose: 1.56 mg/kg/injection, schedule: Q01DX009 (ip), vehicle: saline) was 102 % of control, the T/C (dose: 3.12 mg/kg/injection, schedule: Q01DX009 (ip), vehicle: saline) was 94 % of control and the T/C (dose: 6.25 mg/kg/injection, schedule: Q01DX009 (ip), vehicle: saline) was 96 % of control and 108 % of control.
In the case of `CCN(CC#CCOc1ccc(Cl)cc1)c1ccccc1`, the T/C [7] is reported as 99 % of control, the T/C [8] is reported as 93 % of control and the T/C [10] is reported as 93 % of control.
`C[N+](C)(C)CCCCCCCC[N+](C)(C)CCCCCCCCCC[N+](C)(C)CCCCCCCC[N+](C)(C)C` was tested, and the T/C (dose: 23.0 micrograms/kg/injection, schedule: Q04DX003 (ip), vehicle: saline) was 97 % of control, the T/C (dose: 45.0 micrograms/kg/injection, schedule: Q04DX003 (ip), vehicle: saline) was 105 % of control and the T/C (dose: 90.0 micrograms/kg/injection, schedule: Q04DX003 (ip), vehicle: saline) was 103 % of control.
